# Measured values as given in patent US20100022491A1, “4-HYDROXY-2-OXO-2,3-DIHYDRO-1,3-BENZOTHIAZOL-7YL COMPOUNDS FOR MODULATION OF B2-ADRENORECEPTOR ACTIVITY” (ASTRAZENECA AB, priority 2006, published 2010).
# Counter-ions that a name gives are not always drawn.
# Assays:
# [1] = target: T1, recombinant human α1D receptor (Homo sapiens, UniProt P25100); test: Adrenergic α1D selectivity binding assay ([3H]-prazosin); conditions: inhibition of [3H]-prazosin (0.3 nM) binding, HEK293 membranes; read-out: α1 bind pIC50 (converted)
# T1 construct: expressed in transfected cells; host or cells: HEK293
# T1 sequence (P25100 1-572): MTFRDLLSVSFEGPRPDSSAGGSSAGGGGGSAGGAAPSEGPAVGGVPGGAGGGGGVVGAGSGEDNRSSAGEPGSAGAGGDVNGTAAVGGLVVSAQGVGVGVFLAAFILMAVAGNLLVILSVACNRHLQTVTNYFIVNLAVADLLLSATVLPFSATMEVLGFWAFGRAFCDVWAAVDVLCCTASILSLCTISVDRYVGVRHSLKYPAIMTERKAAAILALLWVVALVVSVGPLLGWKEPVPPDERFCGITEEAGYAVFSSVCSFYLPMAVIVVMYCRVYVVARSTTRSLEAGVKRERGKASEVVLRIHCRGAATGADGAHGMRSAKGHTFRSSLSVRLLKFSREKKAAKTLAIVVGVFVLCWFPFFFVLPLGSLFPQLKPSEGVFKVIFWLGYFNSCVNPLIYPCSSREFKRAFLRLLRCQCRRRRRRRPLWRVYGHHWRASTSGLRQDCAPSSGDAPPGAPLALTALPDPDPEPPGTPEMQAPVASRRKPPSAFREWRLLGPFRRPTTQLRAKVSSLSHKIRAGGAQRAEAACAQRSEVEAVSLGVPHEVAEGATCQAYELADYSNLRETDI
# Method: Membranes were prepared from human embryonic kidney 293 (HEK293) cells expressing recombinant human α1D receptor. These were diluted in Assay Buffer (50 mM HEPES, 1 mM EDTA, 0.1% gelatin, pH 7.4) to provide a final concentration of membranes that gave a clear window between maximum and minimum specific binding.
# (§1) Assays were performed in U-bottomed 96-well polypropylene plates. 10 μL [^3H]-prazosin (0.3 nM final concentration) and 10 μL of test compound (10× final concentration) were added to each test well. For each assay plate 8 replicates were obtained for [^3H]-prazosin binding in the presence of 10 μL vehicle (10% (v/v) DMSO in Assay Buffer; defining maximum binding) or 10 μL BMY7378 (10 μM final concentration; defining non-specific binding (NSB)). Membranes were then added to achieve a final volume of 100 μL. The plates were incubated for 2 hours at room temperature and then filtered onto PEI coated GF/B filter plates, pre-soaked for 1 hour in Assay Buffer, using a 96-well plate Tomtec cell harvester. Five washes with 250 μL wash buffer (50 mM HEPES, 1 mM EDTA, pH 7.4) were performed at 4° C. to remove unbound radioactivity. The plates were dried then sealed from underneath using Packard plate sealers and MicroScint-O (50 μL) was added to each well. The plates were sealed (TopSeal A) and filter-bound radioactivity was measured with a scintillation counter (TopCount, Packard BioScience) using a 3-minute counting protocol.
# (§2) Total specific binding (B0) was determined by subtracting the mean NSB from the mean maximum binding. NSB values were also subtracted from values from all other wells. […] Data was fitted to a four parameter logistic equation to determine the compound potency, which was expressed as pIC50 (negative log molar concentration inducing 50% inhibition of [^3H]-prazosin binding).
# [2] = target: T2, recombinant human adrenergic beta 1 receptors (Homo sapiens, UniProt P08588); test: Adrenergic β1 selectivity binding assay ([125I]-Iodocyanopindolol); conditions: inhibition of [125I]-Iodocyanopindolol (0.036 nM) binding; read-out: β1 bind p IC50 (converted)
# T2 construct: purchased Euroscreen
# Method: (§3) Membranes containing recombinant human adrenergic beta 1 receptors were obtained from Euroscreen. These were diluted in Assay Buffer (50 mM HEPES, 1 mM EDTA, 120 mM NaCl, 0.1% gelatin, pH 7.4) to provide a final concentration of membranes that gave a clear window between maximum and minimum specific binding.
# as §1, with “[^125I]-Iodocyanopindolol (0.036” for “[^3H]-prazosin (0.3”, “[^125I]-Iodocyanopindolol” for “[^3H]-prazosin”, “Propranolol” for “BMY7378”, “EDTA, 120 mM NaCl,” for “EDTA,”
# as §2, with “[^125I]-Iodocyanopindolol” for “[^3H]-prazosin”
# Adrenergic β2 = target: T3, Adrenergic β2 (Homo sapiens, UniProt P07550); test: Adrenergic β2 mediated cAMP production in H292 cells; type: cell-based; conditions: for EC50: H292 cells, cAMP by AlphaScreen, 60 minutes at room temperature, rolipram 300 μM, read-out: β2 pEC50 (converted); for β2 Int Act: Intrinsic Activity as a fraction relative to the maximum activity determined for formoterol
# T3 construct: Adherent H292 cells were removed from tissue culture flasks; endogenous in cells; host or cells: H292 cells
# Method: Adrenergic β2 mediated cAMP production
# H292 cells were grown in 225 cm2 flasks incubator at 37° C., 5% CO2 in RPMI medium containing, 10% (v/v) FBS (foetal bovine serum) and 2 mM L-glutamine.
# Adherent H292 cells were removed from tissue culture flasks by treatment with Accutase™ cell detachment solution for 15 minutes. Flasks were incubated for 15 minutes in a humidified incubator at 37° C., 5% CO2. Detached cells were re-suspended in RPMI media (containing 10% (v/v) FBS and 2 mM L-glutamine) at 0.05×10^6 cells per mL. 5000 cells in 100 μL were added to each well of a tissue-culture-treated 96-well plate and the cells incubated overnight in a humidified incubator at 37° C., 5% CO2. The culture media was removed and cells were washed twice with 100 μL assay buffer and replaced with 50 μL assay buffer (HBSS solution containing 10 mM HEPES pH7.4 and 5 mM glucose). Cells were rested at room temperature for 20 minutes after which time 25 μL of rolipram (1.2 mM made up in assay buffer containing 2.4% (v/v) dimethylsulphoxide) was added. Cells were incubated with rolipram for 10 minutes after which time test compounds were added and the cells were incubated for 60 minutes at room temperature. The final rolipram concentration in the assay was 300 μM and final vehicle concentration was 1.6% (v/v) dimethylsulphoxide. The reaction was stopped by removing supernatants, washing once with 100 μL assay buffer and replacing with 50 μL lysis buffer. The cell monolayer was frozen at −80° C. for 30 minutes (or overnight).
# The concentration of cAMP (cyclic adenosine monophosphate) in the cell lysate was determined using AlphaScreen™ methodology. The frozen cell plate was thawed for 20 minutes on a plate shaker then 10 μL of the cell lysate was transferred to a 96-well white plate. 40 μL of mixed AlphaScreen™ detection beads pre-incubated with biotinylated cAMP, was added to each well and the plate incubated at room temperature for 10 hours in the dark. The AlphaScreen™ signal was measured using an EnVision spectrophotometer (Perkin-Elmer Inc.) with the recommended manufacturer's settings. cAMP concentrations were determined by reference to a calibration curve determined in the same experiment using standard cAMP concentrations. Concentration response curves for agonists were constructed and data was fitted to a four parameter logistic equation to determine both the pEC50 and Intrinsic Activity. Intrinsic Activity was expressed as a fraction relative to the maximum activity determined for formoterol in each experiment.
# [3] = target: T4, recombinant human Dopamine Subtype D2s receptors (Homo sapiens, UniProt P14416); test: Dopamine D2 selectivity binding assay ([3H]-spiperone); conditions: inhibition of [3H]-spiperone (0.16 nM) binding; read-out: D2 bind pIC50 (converted)
# T4 construct: purchased Perkin Elmer
# Method: as §3, with “Dopamine Subtype D2s” for “adrenergic beta 1”, “Perkin Elmer.” for “Euroscreen.”
# Assays were performed in U-bottomed 96-well polypropylene plates. 30 μL [^3H]-spiperone (0.16 nM final concentration) and 30 μL of test compound (10× final concentration) were added to each test well. For each assay plate 8 replicates were obtained for [^3H]-spiperone binding in the presence of 30 μL vehicle (10% (v/v) DMSO in Assay Buffer; defining maximum binding) or 30 μL Haloperidol (10 μM final concentration; defining non-specific binding (NSB)). Membranes were then added to achieve a final volume of 300 μL. The plates were incubated for 2 hours at room temperature and then filtered onto PEI coated GF/B filter plates, pre-soaked for 1 hour in Assay Buffer, using a 96-well plate Tomtec cell harvester. Five washes with 250 μL wash buffer (50 mM HEPES, 1 mM EDTA, 120 mM NaCl, pH 7.4) were performed at 4° C. to remove unbound radioactivity. The plates were dried then sealed from underneath using Packard plate sealers and MicroScint-O (50 μL) was added to each well. The plates were sealed (TopSeal A) and filter-bound radioactivity was measured with a scintillation counter (TopCount, Packard BioScience) using a 3-minute counting protocol.
# as §2, with “[^3H]-spiperone” for “[^3H]-prazosin”
# T3 sequence (P07550 whole entry): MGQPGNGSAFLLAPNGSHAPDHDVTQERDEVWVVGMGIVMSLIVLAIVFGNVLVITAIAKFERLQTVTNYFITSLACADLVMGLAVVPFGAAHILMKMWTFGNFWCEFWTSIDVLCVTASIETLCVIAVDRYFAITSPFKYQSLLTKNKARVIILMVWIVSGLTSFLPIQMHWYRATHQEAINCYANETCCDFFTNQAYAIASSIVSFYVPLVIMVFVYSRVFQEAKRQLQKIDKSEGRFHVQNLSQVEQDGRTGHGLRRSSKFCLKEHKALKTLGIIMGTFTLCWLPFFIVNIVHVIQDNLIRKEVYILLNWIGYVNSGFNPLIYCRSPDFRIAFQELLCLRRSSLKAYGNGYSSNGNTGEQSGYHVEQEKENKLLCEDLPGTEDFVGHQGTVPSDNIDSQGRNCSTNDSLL
# T4 sequence (P14416 1-414 isoform P14416-2): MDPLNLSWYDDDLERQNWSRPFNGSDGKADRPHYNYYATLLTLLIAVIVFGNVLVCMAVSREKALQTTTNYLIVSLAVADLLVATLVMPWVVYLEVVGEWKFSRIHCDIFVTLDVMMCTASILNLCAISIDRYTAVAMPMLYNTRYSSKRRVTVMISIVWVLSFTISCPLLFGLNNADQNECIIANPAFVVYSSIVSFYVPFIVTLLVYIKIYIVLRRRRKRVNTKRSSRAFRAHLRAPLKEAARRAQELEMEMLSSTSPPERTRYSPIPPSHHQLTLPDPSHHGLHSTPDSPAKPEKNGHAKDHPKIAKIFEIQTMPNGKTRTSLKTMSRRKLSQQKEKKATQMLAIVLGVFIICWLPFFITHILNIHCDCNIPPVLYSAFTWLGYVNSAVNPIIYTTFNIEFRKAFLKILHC
# T2 sequence (P08588 whole entry): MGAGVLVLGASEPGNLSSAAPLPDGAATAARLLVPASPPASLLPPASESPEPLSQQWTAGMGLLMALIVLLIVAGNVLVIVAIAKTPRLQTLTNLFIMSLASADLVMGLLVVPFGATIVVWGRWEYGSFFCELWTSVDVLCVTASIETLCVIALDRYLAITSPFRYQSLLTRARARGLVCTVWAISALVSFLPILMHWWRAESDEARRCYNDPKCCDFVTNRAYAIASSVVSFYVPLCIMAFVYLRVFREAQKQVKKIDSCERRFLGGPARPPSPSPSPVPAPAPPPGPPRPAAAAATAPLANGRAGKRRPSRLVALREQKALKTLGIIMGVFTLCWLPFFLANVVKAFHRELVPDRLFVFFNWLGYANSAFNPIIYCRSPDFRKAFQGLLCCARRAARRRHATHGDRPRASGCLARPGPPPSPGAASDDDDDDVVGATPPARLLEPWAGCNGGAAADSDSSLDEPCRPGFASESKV
IC50 [1],IC50 [2],EC50 (Adrenergic β2),β2 Int Act (Adrenergic β2),IC50 [3],SMILES
0.631 µM,1.58 µM,0.00794 µM,0.59,–,"O=C(CCNCCc1ccc(Cl)c(Cl)c1)N(CCNCCc1ccc(O)c2[nH]c(=O)sc12)C1CCC(F)(F)CC1 [Example 49, N^3-[2-(3,4-Dichlorophenyl)ethyl]-N^1-(4,4-difluorocyclohexyl)-N^1-(2-{[2-(4-hydroxy-2-oxo-2,3-dihydro-1,3-benzothiazol-7-yl)ethyl]amino}ethyl)-β-alaninamide bis-trifluoroacetic acid salt]"
1.26 µM,–,0.126 µM,0.86,0.398 µM,"O=C(CCNCCC(F)(F)F)N(CCNCCc1ccc(O)c2[nH]c(=O)sc12)C1CCCCC1 [Example 80, N^1-Cyclohexyl-N^1-(2-{[2-(4-hydroxy-2-oxo-2,3-dihydro-1,3-benzothiazol-7-yl)ethyl]amino}ethyl)-N^3-(3,3,3-trifluoropropyl)-β-alaninamide bis-trifluoroacetic acid salt]"
0.794 µM,–,0.0631 µM,0.64,0.794 µM,"CC(C)(CO)CN(CCNCCc1ccc(O)c2[nH]c(=O)sc12)C(=O)CCNCCc1ccc(Cl)cc1 [Example 40, N^3-[2-(4-Chlorophenyl)ethyl]-N-(3-hydroxy-2,2-dimethylpropyl)-N-(2-{[2-(4-hydroxy-2-oxo-2,3-dihydro-1,3-benzothiazol-7-yl)ethyl]amino}ethyl)-β-alaninamide diacetic acid salt]"
